Results from US10618937B2, “Method of treating Alzheimer's disease” (INDUSTRY-ACADEMIC COOPERATION FOUNDATION GYEONGSANG …, priority 2016, dated 2020).

What was measured:
APP/PS1 model mice = assay: Y-maze test; assay type: in vivo; details: 45 days after IP administration
Procedure: Male C57BL/6J wild type mice and double transgenic B6.Cg-Tg (APPswe, PSENdE9) 85Dbo Mmjax (APP/PS1) AD-model mice were obtained from Jackson Laboratories (Bar Harbor, Me., USA). The brains of the double transfected mice express Swedish mutation-containing chimeric mouse-human amyloid precursor protein (Mo/HuAPP695swe) and mutant human presenilin 1 protein (PS1-dE9). The mice were fed with an unlimited supply of food and water at an animal breeding ground of a university at a temperature of 23° C., at the relative humidity of 60±10% and in the black and light cycle of 12 h/12 h. When the mice reached 10 months of age, they were transferred to the injection and behavior observation room for 1 week for purification. The maintenance and treatment for mice were performed according to the guidelines of the Animal Ethics Committee (IACUC) issued by Department of Biology, Division of Applied Life Science of Gyeongsang National University in Korea. Experiments according to the present disclosure were conducted according to the guidelines approved by the guidelines of the Animal Ethics Committee (IACUC) issued by Department of Biology, Division of Applied Life Science of Gyeongsang National University in Korea (approval ID: 125). […]
Alteration behavior ratio (%) was calculated as [set of overlapping triplets (consecutive entry into 3 different arms)/total entry−2]×100. […]

APP/PS1 mice = assay: Thioflavin S staining / immunofluorescence analysis of amyloid plaques in brain; assay type: in vivo; details: IP once every 2.5 days for 45 days
Procedure: Adiponectin receptor-activating novel peptide (5AA1) was IP administered to 10 week old APP/PS1 mice once every 2.5 days for 45 days, and then, to prepare a slide section, the brains of the mice were fixed by transcardial perfusion of ice-cold 4% paraformaldehyde. The brains were fixed in 4% paraformaldehyde for 72 hours, and then, transferred to 20% sucrose and maintained at a temperature of 4° C. for 72 hours. The brains were placed in an optimal cutting temperature (OCT) compound (A.O., USA), frozen in liquid nitrogen, and sectioned into coronal plane (14 μm) in CM 3050C cryostat (Leica, Germany). Pictures of tissue sections were taken on ProbeOn Plus charged slides (Fisher, USA).
Immunofluorescence analysis was performed by using minor modifications of the method described in the existing study (Shah et al., 2014; Shah et al., 2015). Slides containing tissue sections were washed twice with a 0.01 M PBS solution for 15 minutes. Proteinase K was added to the tissue sections, which were then cultured at a temperature of 37° C. for 5 minutes. The tissue sections were then reacted in a blocking solution (5% normal goat serum, 0.3% Triton X-100, PBS) for 1 hour. The slides were reacted overnight with the primary antibody (the same antibody used in the ‘Western blot analysis’) and then reacted with secondary TRITC- or FITC-conjugated antibodies (diluted 1:50 in PBS; Santa Cruz) at room temperature for 90 minutes. The slides were dipped in Prolong Antifade reagent (Molecular Probe, Eugene, Oreg., USA) and stained. All stained slides were analyzed with a confocal laser scanning microscope (Flouview FV 1000). Amyloid plaques were visualized in brain slices after Thioflavin S staining. The brain slices were washed twice with 0.01 M PBS for 10 minutes, and then immersed in fresh 1% Thioflavin S solution at room temperature for 10 minutes. The brain slices were then immersed in 70% ethanol for 5 minutes, then washed twice with water, counterstained with propidium iodide (PI) and covered with cover glass.
Morphological analysis and signals were analyzed with Image J software (open source software provided by the US NIH), and the analysis results were expressed as IOD (Integral Optical Density). The ratio of the amyloid deposit site in the proposed area was also quantified by using Image-J software.

[1] = system: primary hippocampus neurons; assay: In vitro electrophysiological analysis (AMPAR-mediated mEPSCs); assay type: cell-based, Sprague-Dawley rats; details: compared to the Aβ group, various concentrations
Procedure: Primary hippocampus neurons isolated from E19 Sprague-Dawley rats were cultured to a density of 150 cells/mm^2. AMPA receptor (AMPAR)-mediated miniature excitatory postsynaptic currents (mEPSCs) were recorded by using conventional whole-cell techniques. When primary hippocampus neurons were filled with an internal solution, the electrode resistance was varied from 3 MΩ to 5 MΩ.
The inventors of the present specification performed current measurements by using an Axopatch 200A patch-clamp amplifier (Molecular Devices, Sunnyvale, Calif.).
The voltage of the membrane and the voltage of current, commands, and digitization were adjusted by using Digidata 1322A connected to Clampex 9.2 (Molecular Devices, Sunnyvale, Calif.) of the pClamp software package on an IBM-compatible computer. The inventors of the present specification analyzed data by using Clampfit (Molecular Devices, Sunnyvale, Calif.) and Prism 4.0 (GraphPad, San Diego, Calif.). The current was low-pass filtered at 2 kHz by using an amplifiers four-pole Bessel filter. […]
The cumulative probability curve of mEPSCs was calculated by using Clampfit 9.0 software and Prism 4.0 (GraphPad, San Diego, Calif.). […]

Question: With “RGPCG (adiponectin receptor-activating peptide) [5AA1]” as the substance, how does the spontaneous alteration (APP/PS1 model mice) read?
Answer: restored

Question: And the “amyloid β plaque in the cortex and hippocampus of the brain” value (APP/PS1 mice)?
Answer: remarkably reduced

Question: What about the mEPSC frequency [1] of the same substance?
Answer: statistically significantly increased
